Among the data in PubChem BioAssay (NCI) are TGI values, retold here.

Structures are written as SMILES.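 Values below derive from 48-hour exposures of cells grown in 96-well plates, with endpoints linearly interpolated between the two concentrations bracketing the appropriate inhibition level. TGI denotes the concentration required for complete inhibition of growth.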

Common to all, as to test: growth of human tumour cells (NCI), 48 h
For assay [1], the system named is IGROV1 ovarian.
The test system of assay [2] is HT29 colon.
For assay [3], the system named is NCI-H23 lung.
In assay [4] the test system is SW-620 colon.
The test system of assay [5] is SF-268 CNS.
Assay [6] concerns ACHN renal.
In assay [7] the test system is UACC-62 melanoma.
The subject of assay [8] is HCT-15 colon.
For assay [9], the system named is NCI-H226 lung.
Assay [10] concerns HOP-62 NSCLC.

As for `O=C1CCCc2c1c1c(n2Cc2ccccc2)-c2ccccc2C1=O`, the TGI in assay [1] is 72.1 µM; in [2], over 100 µM; in [3], 32.1 µM; in [4], over 100 µM; in assay [5], 64.1 µM; in assay [6], 30.9 µM. Further, the TGI in [7] came to 44.9 µM; in assay [8] it was 34.7 µM; in assay [9] it was 66.1 µM; in assay [10], 50.2 µM.
Consider `CC(=O)[O-].CC(=O)[O-].O=C(N/N=C/c1cc(Cl)cc(Cl)c1[OH2+])c1ccncc1.[Co+2]`, for which the TGI in assay [1], in assay [2], in [3], in assay [4], in assay [5] and in assay [6] was over 100 µM throughout. The TGI in [7], in [8], in assay [9] and in [10] was over 100 µM in each case.
`CC(=O)Nc1ncc(Sc2ccccc2C(=O)O)s1`: the TGI in assay [1], in [2], in assay [3], in assay [4], in [5] and in assay [6] was over 100 µM each time. In addition, the TGI in [7], in [8], in assay [9] and in assay [10] was over 100 µM each time.
